Publication PMC6941952, “A homogeneous bioluminescent immunoassay to probe cellular signaling pathway regulation” (Communications Biology, 2020)
Where “and” joins values, the source holds several entries; their conditions need not be identical. Equal entries are not always repeated.

Tested on: total IκBα
Assay: NanoBiT cell-based immunoassay, total IκBα in MCF-7 cells
Set-up: species or system human
Conditions: for IKB with CHX Raw data / IKB with CHX Subtract reagent background / IkB Average: with CHX; for IkB Average: background subtracted
Protocol: Prior to NanoBiT Cell-Based Immunoassay, 50,000 cells were seeded in 160 µl of complete growth media per well of a 96-well plate and incubated overnight. […] If necessary, the cell culture media were replaced with serum-free media after the cells were stably adherent on the plate and incubated overnight. To treat cells with activators or inhibitors, medium was changed to 30 µl of medium containing inhibitors. If activation of a specific pathway is needed, the cells were stimulated with 10 µl of medium containing activators. To lyse the cells, 10 µl of lysis buffer containing 0.1% digitonin diluted in 1X immunoassay buffer with protease and phosphatase inhibitors was added and the plates were mixed vigorously for 20 min. Then, 50 µl of an antibody mix containing two primary antibodies against the target protein and NanoBiT detecting antibodies (0.3 µl each per well), diluted in 1X immunoassay buffer was added to the lysates. The plates were incubated at 23 °C for 90 min, followed by the addition of 25 µl of Nano-Glo® reagent consisting of Nano-Glo® Luciferase Assay Substrate mixed with 1X immunoassay buffer. Luminescence was measured using a plate-reading luminometer.
Single dose or dose response inhibitor treatments were performed prior to activation of the pathways as follows. For IκBα, the cells were treated in 30 µl medium with IKK16 or MG132 for 60 min before the addition of 10 µl of DMEM containing appropriate concentration of TNFα. To measure phosphorylation of AKT or STAT3, the corresponding NanoBiT immunoassays were developed with MCF-7 or A431 cells, respectively, according the same scheme used to develop the IκBα assay using the primary antibodies for AKT and STAT3 described in the reagents section. […] Treatment with LY294002 was performed in 30 µl medium and cells were incubated for 60 min before the addition of 1 µM Insulin. To measure STAT3 phosphorylation, A431 cells were incubated overnight in DMEM medium without serum. […] After addition of the stimulators, the cells were incubated for additional times as follows. IκBα phosphorylation and degradation analyses required both time courses and single time points as described in figures. […] The NanoBiT immunoassay protocol was followed as described above.
All 96-well assay plates were read using a GloMax® 96 Microplate Luminometer from Promega. The instrument was set to 0.5 s integration time. In order to obtain net change of signal, the reagent background values (signal from the well containing all reagent except primary antibodies) were subtracted from the sample values. To plot and analyze the data, Microsoft Excel and GraphPad Prism® Software were used. IC50 values were determined by using a nonlinear regression fit to a sigmoidal dose response (variable slope).

Question: C[C@@H]1C[C@@H]([C@H](O)CC2CC(=O)NC(=O)C2)C(=O)[C@@H](C)C1 [CHX] was tested. Which “IKB with CHX Raw data” value (TNF 0 min) did it give?
Answer: 55360 and 57660 and 54100 and 60230

Question: And the “IKB with CHX Subtract reagent background” value (TNF 0 min)?
Answer: 43590 and 45890 and 42330 and 48460

Question: And the “IkB Average” value (TNF 0 min)?
Answer: 45068

Question: And the “IKB with CHX Raw data” value (TNF 5 min)?
Answer: 58100 and 62010 and 65600 and 63320

Question: And the “IKB with CHX Subtract reagent background” value (TNF 5 min)?
Answer: 46330 and 50240 and 53830 and 51550

Question: What about the “IkB Average” value (TNF 5 min) of the same molecule?
Answer: 50488

Question: And the “IKB with CHX Raw data” value (TNF 10 min)?
Answer: 40310 and 45450 and 45320 and 45290

Question: And the “IKB with CHX Subtract reagent background” value (TNF 10 min)?
Answer: 28540 and 33680 and 33550 and 33520

Question: What about the “IkB Average” value (TNF 10 min) of the same molecule?
Answer: 32323

Question: What about the “IKB with CHX Raw data” value (TNF 20 min) of the same molecule?
Answer: 19760 and 23860 and 25280

Question: And the “IKB with CHX Subtract reagent background” value (TNF 20 min)?
Answer: 7990 and 12090 and 13510

Question: What about the “IkB Average” value (TNF 20 min) of the same molecule?
Answer: 10395

Question: What about the “IKB with CHX Raw data” value (TNF 30 min) of the same molecule?
Answer: 17770 and 17940 and 21410 and 21590

Question: And the “IKB with CHX Subtract reagent background” value (TNF 30 min)?
Answer: 6000 and 6170 and 9640 and 9820

Question: What about the “IkB Average” value (TNF 30 min) of the same molecule?
Answer: 7908

Question: And the “IKB with CHX Raw data” value (TNF 40 min)?
Answer: 17270 and 17950 and 20500 and 19500

Question: What about the “IKB with CHX Subtract reagent background” value (TNF 40 min) of the same molecule?
Answer: 5500 and 6180 and 8730 and 7730

Question: And the “IkB Average” value (TNF 40 min)?
Answer: 7035

Question: And the “IKB with CHX Raw data” value (TNF 60 min)?
Answer: 18390 and 17430 and 19370 and 18920

Question: And the “IKB with CHX Subtract reagent background” value (TNF 60 min)?
Answer: 6620 and 5660 and 7600 and 7150

Question: And the “IkB Average” value (TNF 60 min)?
Answer: 6758

Question: And the “IKB with CHX Raw data” value (TNF 80 min)?
Answer: 19070 and 18960 and 19260 and 19280

Question: What about the “IKB with CHX Subtract reagent background” value (TNF 80 min) of the same molecule?
Answer: 7300 and 7190 and 7490 and 7510

Question: What about the “IkB Average” value (TNF 80 min) of the same molecule?
Answer: 7373

Question: What about the “IKB with CHX Raw data” value (TNF 100 min) of the same molecule?
Answer: 19610 and 18970 and 19990 and 19730

Question: What about the “IKB with CHX Subtract reagent background” value (TNF 100 min) of the same molecule?
Answer: 7840 and 7200 and 8220 and 7960

Question: What about the “IkB Average” value (TNF 100 min) of the same molecule?
Answer: 7805

Question: What about the “IKB with CHX Raw data” value (TNF 120 min) of the same molecule?
Answer: 20170 and 20220 and 20080 and 18790

Question: What about the “IKB with CHX Subtract reagent background” value (TNF 120 min) of the same molecule?
Answer: 8400 and 8450 and 8310 and 7020

Question: What about the “IkB Average” value (TNF 120 min) of the same molecule?
Answer: 8045

Question: C[C@@H]1C[C@@H]([C@H](O)CC2CC(=O)NC(=O)C2)C(=O)[C@@H](C)C1 [cycloheximide] was tested. Which “IκBα after the degradation phase (de novo synthesis)” value (MCF-7 cells, TNFα 50 ng per ml, 20 µg per ml added after 30 min) did it give?
Answer: not detected
